Source: article PMC5650142, “GPR40 partial agonists and AgoPAMs: Differentiating effects on glucose and hormonal secretions in the rodent” (PLoS ONE, 2017)
Values joined by “and” are separate entries in the source; they are usually repeats but may differ in a detail not shown here. Equal values may be shown once. Read-outs that look alike come from different tables or passages of the source.

What was measured:
GK rats = assay: GK rat acute efficacy (glucose, insulin, glucagon after single dose); assay type: in vivo; settings: for Plasma Glucagon Over Time (Fig 2C) / Plasma Insulin Over Time (Fig 2B): 10 mpk
Method: Ambient blood glucose was measured via tail snip with a glucometer (OneTouch Ultra, Lifescan Inc., Milpitas, CA). Body weights were then measured, and food was removed approximately 1 hr post lights on. Animals were sorted into treatment groups based on ambient glucose. At approximately 10 AM, glucose was measured and blood for insulin, glucagon, and drug exposure was collected. […] Each compound tested was dosed at its maximal effective dose determined through a series of dose titrations using this experimental paradigm (data not shown). Effects of treatment on glucose, insulin, and glucagon were measured at 1, 2, 4, and 24 hrs post dose. After the 4 hr blood collection, food was returned overnight and removed the next day at 1 hr post lights on.
Blood for insulin, glucagon, GLP-1, GIP, and PYY measurements was collected into K2EDTA Microtainer tubes (BD, Franklin Lakes, NJ) pre-treated with DPP4 inhibitor (Millipore, Billerica, MA) and cOmplete™ Protease Inhibitor Cocktail Tablets (Roche Diagnostics, Indianapolis, IN). Tubes were centrifuged for 10 minutes at 5000 RPM, and plasma was aliquotted for analysis. Plasma insulin levels were measured via EIA (Mesoscale Discovery ELISA Kit, Gaithersburg MD). Rat plasma total GLP-1 was measured using Total GLP-1 (ver.2) Assay Kit (Cat#: K150JVC). The measurement of active GLP-1 was carried out in a similar manner as that described for total GLP-1 assay with the exception that MSD Active GLP-1 (ver. 2) assay kit (Cat# K150JWC) was used. Rat plasma glucagon was measured using an in-house glucagon assay developed as a MSD format sandwich immunoassay (Merck & Co., Inc., MRL, Kenilworth, NJ USA). The antibody specificity was cross validated via mass- spec using procedures described in Lee et al. Briefly, MSD Streptavidin Gold plates were coated with 2 μg/ml biotin mouse monoclonal antibody generated to glucagon. Test samples were added to the plates and a separate Sulfo- tagged monoclonal antibody was used to detect the captured glucagon protein (2 μg/ml). The ELISA was carried out in the standard reagents in the MSD format. The plate was read on the SECTOR Imager 6000 Reader. Metabolic hormones GIP (Gastric Inhibitory Polypeptide) and PYY (Peptide YY) were measured in rat plasma using the Rat Metabolic Magnetic Bead Panel (EMD Millipore, Billerica, MA). The assay was performed according to manufacturer protocol.

human GPR40 = human GPR40 (Homo sapiens, UniProt O14842); assay: GPR40 binding assay, AgoPAM tracer [3H]25 ([3H]AP9); set-up: expressed in transfected cells; host or cells: CHO / CHO-K1 cells, membrane preparation;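 on % Bound Normalized to 100: 100% bound is tracer binding in DMSO-only wells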;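 on %Bound: 100% bound is tracer binding in DMSO-only wells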
Chain of human GPR40 (O14842 whole entry): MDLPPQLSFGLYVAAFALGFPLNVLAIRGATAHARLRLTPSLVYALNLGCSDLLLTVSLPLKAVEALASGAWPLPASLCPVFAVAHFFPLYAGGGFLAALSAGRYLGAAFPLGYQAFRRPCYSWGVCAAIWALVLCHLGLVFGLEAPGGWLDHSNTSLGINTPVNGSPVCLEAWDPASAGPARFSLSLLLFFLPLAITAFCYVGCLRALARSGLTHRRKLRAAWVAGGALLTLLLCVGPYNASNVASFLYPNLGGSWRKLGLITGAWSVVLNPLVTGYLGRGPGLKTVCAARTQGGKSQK
Method: Two small molecule tracers, the partial agonist [3H][…] and the AgoPAM [3H]25, are used to measure compound affinity at each site as described previously. Because of the allosteric coupling of the two sites and the nature of the assay, addition of a compound will either displace (binds to same site) or augment (binds to allosterically coupled site) radiotracer. Membranes expressing GPR40 were prepared from CHO cells stably expressing human GPR40. […] Sigma P8830) and were homogenized in 50 ml aliquots with a motor-driven glass Dounce homogenizer, 15 strokes at 1900 rpm on wet ice, repeating once. Homogenates were centrifuged at 2200 rpm for 10 min at 4°C. Supernatants were carefully removed and pooled. Homogenization and centrifugation were repeated until the debris pellet was translucent to maximize membrane recovery. Supernatants were then centrifuged at […] rpm for 20 min. at 4°C. […] Protein concentration was determined by Pierce BCA kit. […] The beads and membrane mixture is then vigorously mixed for 30 minutes at room temperature prior to addition to the assay. […] Next, 15 μl of the radioligand and 35 μl of the beads/membranes solution is added to each well. The assay plates are then sealed and incubated for 30 minutes at room temperature on an orbital shaker. The plates are allowed to settle for 16 hours and then counted on a TopCount scintillation counter (PE). […] Maximal % bound and IC50 are then determined for each test compound. 5 μg/well membrane together with 200 μg/well of PVT WGA SPA beads (GE #RPNG-0001) were suspended in a white 96 well plate with a final concentration of 50 μl/well in assay buffer (50 mM Tris, 10 mM MgCl2, and 2 mM EDTA). […] The plate is briefly mixed and incubated for 3-18 h at room temperature, before it is read on a MicroBeta plate counter (Perkin Elmer, MS, USA).

[1] = radioligand L-005306257, dose 0.318285 nM
[2] = radioligand L-005306257, dose 1.00578 nM
[3] = radioligand L-005306257, dose 3.17827 nM
[4] = radioligand L-005306257, dose 10.0433 nM
[5] = radioligand L-005306257, dose 31.7369 nM
[6] = radioligand L-005306257, dose 100.289 nM
[7] = radioligand L-005306257, dose 316.912 nM
[8] = radioligand L-005306257, dose 1001.44 nM
[9] = radioligand L-005306257, dose 3164.56 nM
[10] = radioligand L-005306257, dose 10000 nM

For `C[C@H](C(=O)O)[C@H](c1ccc2c(c1)O[C@H](C1CN(Cc3cc(C(F)(F)F)ccc3C(F)(F)F)C1)CC2)C1CC1` [AP3], the “Plasma Glucagon Over Time (Fig 2C)” value (GK rats; time 0, individual animals) was 19.5235 pg/mL and 95.1724 pg/mL and 78.4069 pg/mL and 68.928 pg/mL and 101.768 pg/mL and 68.1132 pg/mL and 64.8322 pg/mL and 90.2934 pg/mL, the “Plasma Insulin Over Time (Fig 2B)” value (GK rats; time 0, individual animals) was 1.335 ng/mL and 3.288 ng/mL and 2.57 ng/mL and 2.616 ng/mL and 1.578 ng/mL and 2.696 ng/mL and 1.845 ng/mL and 1.5169 ng/mL and the “Plasma Glucagon Over Time (Fig 2C)” value (GK rats; time 1, individual animals) was 91.082 pg/mL and 337.393 pg/mL and 327.979 pg/mL and 373.532 pg/mL and 338.805 pg/mL and 110.666 pg/mL and 312.795 pg/mL and 175.651 pg/mL. The “Plasma Insulin Over Time (Fig 2B)” value (GK rats; time 1, individual animals) was 7.035 ng/mL and 11.786 ng/mL and 10.5354 ng/mL and 9.1461 ng/mL and 4.564 ng/mL and 7.402 ng/mL and 7.0553 ng/mL and 5.184 ng/mL, the “Plasma Glucagon Over Time (Fig 2C)” value (GK rats; time 2, individual animals) was 309.053 pg/mL and 291.695 pg/mL and 285.862 pg/mL and 322.143 pg/mL and 116.312 pg/mL and 40.1476 pg/mL and 259.365 pg/mL and 215.877 pg/mL and the “Plasma Insulin Over Time (Fig 2B)” value (GK rats; time 2, individual animals) was 3.782 ng/mL and 3.3115 ng/mL and 3.493 ng/mL and 3.854 ng/mL and 1.215 ng/mL and 0.8625 ng/mL and 2.2798 ng/mL and 2.163 ng/mL. For the same compound, the “Plasma Glucagon Over Time (Fig 2C)” value (GK rats; time 4, individual animals) was 120.787 pg/mL and 261.082 pg/mL and 116.805 pg/mL and 218.976 pg/mL and 231.061 pg/mL and 206.193 pg/mL and 151.031 pg/mL and 315.618 pg/mL, the “Plasma Insulin Over Time (Fig 2B)” value (GK rats; time 4, individual animals) was 3.033 ng/mL and 3.537 ng/mL and 3.038 ng/mL and 2.421 ng/mL and 1.582 ng/mL and 1.483 ng/mL and 2.06 ng/mL and 1.86 ng/mL and the “Plasma Glucagon Over Time (Fig 2C)” value (GK rats; time 24, individual animals) was 114.227 pg/mL and 80.8254 pg/mL and 201.451 pg/mL and 177.87 pg/mL and 103.778 pg/mL and 114.567 pg/mL and 171.755 pg/mL and 119.088 pg/mL. For the same compound, the “Plasma Insulin Over Time (Fig 2B)” value (GK rats; time 24, individual animals) was 1.556 ng/mL and 1.426 ng/mL and 1.797 ng/mL and 1.415 ng/mL and 0.6908 ng/mL and 1.576 ng/mL and 1.455 ng/mL and 1.848 ng/mL, the “Binding Results, % in parentheses, [^3H]AP9” value (human GPR40; WT human GPR40, maximal % (not defined)) was “(101%)” and the IC50 (human GPR40; WT human GPR40, n = 2–13, read-out: Binding Results [IC50, nM], [^3H]AP9) was 5.9 ± 5.2 nM. The “binding of [^3H]25” value (human GPR40; human GPR40 membranes, competition binding) was “displace”, the “%Act, HUMAN GPR40, Binding Data” value (human GPR40; individual determinations, AgoPAM tracer (per Table 2)) was 102% and 101% and the IC50 (human GPR40; individual determinations, AgoPAM tracer (per Table 2), read-out: IC50 (nM), HUMAN GPR40, Binding Data) was 2.18 nM and 9.53 nM. The “% Bound Normalized to 100” value (human GPR40; [1]) was 96.23%, the “%Bound” value (human GPR40; [1]) was 90.33% and the inhibition at 0.000318285 µM (human GPR40; [1]) was 6.84%. For the same compound, the “% Bound Normalized to 100” value (human GPR40; [2]) was 76.57%, the “%Bound” value (human GPR40; [2]) was 70.67% and the inhibition at 0.00100578 µM (human GPR40; [2]) was 10.2%. For the same compound, the “% Bound Normalized to 100” value (human GPR40; [3]) was 49.04%, the “%Bound” value (human GPR40; [3]) was 43.15% and the inhibition at 0.00317827 µM (human GPR40; [3]) was 27.8%. For the same compound, the “% Bound Normalized to 100” value (human GPR40; [4]) was 29.38%, the “%Bound” value (human GPR40; [4]) was 23.49% and the inhibition at 0.0100433 µM (human GPR40; [4]) was 52.8%. The “% Bound Normalized to 100” value (human GPR40; [5]) was 11.81%, the “%Bound” value (human GPR40; [5]) was 5.92% and the inhibition at 0.0317369 µM (human GPR40; [5]) was 84.3%. The “% Bound Normalized to 100” value (human GPR40; [6]) was 9.60%, the “%Bound” value (human GPR40; [6]) was 3.71% and the inhibition at 0.100289 µM (human GPR40; [6]) was 92.8%. The “% Bound Normalized to 100” value (human GPR40; [7]) was 4.07%, the “%Bound” value (human GPR40; [7]) was -1.82% and the inhibition at 0.316912 µM (human GPR40; [7]) was 100%. The “% Bound Normalized to 100” value (human GPR40; [8]) was 2.48%, the “%Bound” value (human GPR40; [8]) was -3.42% and the inhibition at 1.00144 µM (human GPR40; [8]) was 102%. The “% Bound Normalized to 100” value (human GPR40; [9]) was 6.29%, the “%Bound” value (human GPR40; [9]) was 0.39% and the inhibition at 3.16456 µM (human GPR40; [9]) was 99.9%. For the same compound, the “% Bound Normalized to 100” value (human GPR40; [10]) was 6.04%, the “%Bound” value (human GPR40; [10]) was 0.15% and the inhibition at 10 µM (human GPR40; [10]) was 101%.
For `Cc1cc(OCCCS(C)(=O)=O)cc(C)c1-c1cccc(COc2ccc3c(c2)OC[C@H]3CC(=O)O)c1` [TAK-875, reference compound], the “blood glucose vs vehicle” value (GK rats; GK rat, single PO dose at maximal efficacious dose, 24 hr time course) was “reduced from the 1 hr time point until the 8 hr time point”, the Plasma Glucagon (GK rats; GK rat, single PO dose at maximal efficacious dose, up to 24 hr) was “not significant” and the “% Bound Normalized to 100” value (human GPR40; [1]) was 75.92%. For the same compound, the “%Bound” value (human GPR40; [1]) was 69.03%, the “% Bound Normalized to 100” value (human GPR40; [2]) was 61.08% and the “%Bound” value (human GPR40; [2]) was 54.19%. For the same compound, the “% Bound Normalized to 100” value (human GPR40; [3]) was 112.60%, the “%Bound” value (human GPR40; [3]) was 105.70% and the “% Bound Normalized to 100” value (human GPR40; [4]) was 125.72%. The “% Bound Normalized to 100” value (human GPR40; [5]) was 146.82%, the “%Bound” value (human GPR40; [5]) was 139.93% and the “% Bound Normalized to 100” value (human GPR40; [6]) was 156.63%. For the same compound, the “%Bound” value (human GPR40; [6]) was 149.74%, the “% Bound Normalized to 100” value (human GPR40; [7]) was 212.44% and the “%Bound” value (human GPR40; [7]) was 205.55%. The “% Bound Normalized to 100” value (human GPR40; [8]) was 187.79%, the “%Bound” value (human GPR40; [8]) was 180.89% and the “% Bound Normalized to 100” value (human GPR40; [9]) was 212.69%. The “%Bound” value (human GPR40; [9]) was 205.79%, the “% Bound Normalized to 100” value (human GPR40; [10]) was -15.09% and the “%Bound” value (human GPR40; [10]) was -21.98%.
